Here are results for eleven compounds from patent US10676438B2, “KCNQ2-5 channel activator” (Ono Pharmaceutical Co., Ltd., priority 2014, dated 2020).

Data set [1] is described as follows: Evaluation of stability in human liver microsome. Format: in vitro ADME. Particulars: human, 15 min, 5 μmol/L, pH 7.4. As for the experimental part: A test compound (10 mmol/L DMSO solution, 5 μL) was diluted with 50% acetonitrile aqueous solution (195 μL) to prepare 0.25 mmol/L solution.
To a reactor vessel which had been warmed to 37° C. in advance, 0.5 mg/mL of human liver microsome (Xenotech) and 245 μL of 0.1 M phosphate buffer solution (pH 7.4) including NADPH-Co-factor (BD Biosciences) were added, followed by preincubation for five minutes. Then, the above-mentioned test compound solution (5 μL) was added so as to start reaction (final concentration: 5 μmol/L). Immediately after the start, 20 μL was harvested and added to 180 μL of acetonitrile including an internal standard substance (warfarin) to stop the reaction. This solution (20 μL) was stirred with 180 μL of 50% acetonitrile aqueous solution on a plate equipped with a deproteinization filter. Then, the resulting mixture solution was subjected to suction filtration. The filtrate was adopted as a standard sample.
The above-mentioned reaction solution was incubated at 37° C. for 15 minutes, and 20 μL of the solution was added to 180 μL of cooled acetonitrile (including warfarin that is an internal standard substance) to stop the reaction. This solution (20 μL) was stirred with 180 μL of 50% acetonitrile aqueous solution on a plate equipped with a deproteinization filter, and then the resulting mixture solution was subjected to suction filtration. The filtrate was adopted as a reaction sample.
Residual rate (%) was obtained as follows: 1 μL of the sample solution was infused into LC-MS/MS (Discovery Max manufactured by Thermo Scientific), and a quotient obtained by dividing a peak area ratio of the reaction sample (peak area of test compound/peak area of internal standard substance) was divided by the peak area ratio of the standard sample was multiplied by 100.
On the technique in general: Microsomes from liver hold many membrane-bound enzymes, among them those of drug oxidation.

Data set [2] can be described thus: Solubility test (DMSO precipitation method, Pharmacopoeia of Japan elution test second solution). The data set is classed as physicochemical. The conditions noted are these: aqueous buffer, kinetic from dmso stock; Pharmacopoeia of Japan elution test second solution pH=6.8, room temperature, five hours; quantitation range 5 to 100 μM. As for the experimental part:
A calibration curve solution was prepared by diluting a test substance (10 mM DMSO solution) with acetonitrile and adding acetonitrile including an internal standard substance (candesartan) so as to be 0.1, 0.4, and 2 μM.
Sample solution was prepared as follows: 5 μL of the compound of the present invention (10 mM DMSO solution) was added to 495 μL of the Pharmacopoeia of Japan elution test second solution (pH=6.8), and the resulting mixture was stirred at room temperature for five hours. Then, the solution was placed into a solubility filter plate and subjected to suction filtration. The filtrate (20 μL) was diluted with acetonitrile, followed by adding acetonitrile including an internal standard substance ([…]).
The calibration curve and sample solutions in the amount of 5 μL were infused into LC-MS/MS (Discovery Max manufactured by Thermo Scientific) and subjected to quantitation (quantitation range: 5 to 100 μM).

Data set [3] deals with hERG channel (Homo sapiens (Human), UniProt Q12809). Briefly: Evaluation of action on hERG IKr current (patch-clamp). The data set is classed as cell-based. The conditions noted are these: HEK293 cell overexpressing hERG, maximum tail current, 10 minutes after application; read-out: IC50 (50% inhibitory activity of hERG channel). Here is the method: Using HEK293 cell overexpressing a human ether-a-go-go-related gene (hERG), the maximum tale current of the hERG IKr current induced by redepolarization pulse subsequent to depolarization pulse was measured by a patch-clamp method.
Chain of hERG channel (Q12809 whole entry): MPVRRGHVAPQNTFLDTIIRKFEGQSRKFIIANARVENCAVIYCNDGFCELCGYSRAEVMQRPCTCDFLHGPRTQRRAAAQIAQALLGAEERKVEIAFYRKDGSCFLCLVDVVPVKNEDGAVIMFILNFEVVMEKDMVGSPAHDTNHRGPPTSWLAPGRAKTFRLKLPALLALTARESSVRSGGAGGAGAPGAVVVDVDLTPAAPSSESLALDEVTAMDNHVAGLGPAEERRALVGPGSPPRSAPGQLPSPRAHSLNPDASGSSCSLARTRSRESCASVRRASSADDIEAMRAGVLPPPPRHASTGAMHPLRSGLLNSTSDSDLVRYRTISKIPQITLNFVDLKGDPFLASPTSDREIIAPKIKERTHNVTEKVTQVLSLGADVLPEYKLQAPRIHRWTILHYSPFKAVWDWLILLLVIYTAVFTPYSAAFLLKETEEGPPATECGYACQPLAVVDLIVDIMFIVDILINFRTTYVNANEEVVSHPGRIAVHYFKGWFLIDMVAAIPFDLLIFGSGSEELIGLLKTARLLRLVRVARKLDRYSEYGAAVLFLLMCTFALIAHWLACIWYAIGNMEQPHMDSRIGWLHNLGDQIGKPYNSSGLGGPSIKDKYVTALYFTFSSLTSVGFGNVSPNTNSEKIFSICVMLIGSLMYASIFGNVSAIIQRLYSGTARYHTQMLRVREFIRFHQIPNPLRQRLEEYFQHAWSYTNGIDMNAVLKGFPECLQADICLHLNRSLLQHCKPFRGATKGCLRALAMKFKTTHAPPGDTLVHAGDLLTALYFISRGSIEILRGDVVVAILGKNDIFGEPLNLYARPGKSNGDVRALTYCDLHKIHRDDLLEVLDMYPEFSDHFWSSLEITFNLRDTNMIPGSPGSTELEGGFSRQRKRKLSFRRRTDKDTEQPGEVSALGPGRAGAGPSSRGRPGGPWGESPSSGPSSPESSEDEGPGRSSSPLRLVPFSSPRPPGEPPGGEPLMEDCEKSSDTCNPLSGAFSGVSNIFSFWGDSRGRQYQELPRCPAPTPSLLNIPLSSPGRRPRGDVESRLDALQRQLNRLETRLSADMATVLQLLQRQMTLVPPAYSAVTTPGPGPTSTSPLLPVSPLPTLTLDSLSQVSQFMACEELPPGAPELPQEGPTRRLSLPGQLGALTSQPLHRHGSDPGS
(Block of hERG is tested as a sign of cardiac risk.)

The test system of data set [4] is urinary bladder extracted from rat. Description: Relaxing action on urinary bladder extracted from rat (rat Magnus test). The conditions noted are these: concentration at which tension change rate is -20%; carbachol 1 μM-induced contraction of rat urinary bladder strips. Here is the method: Female Jcl Wistar rats (CLEA Japan, Inc., body weight in use: 170 to 200 g) were anesthetized by intraperitoneal administration of about 40 mg/kg of pentobarbital (Somnopentyl, Schering Plough Animal Health Corporation), and killed by bloodletting, followed by abdominal incision to extract the urinary bladder. Immediately, the extracted urinary bladder was immersed in ice-cooled Krebs buffer (Krebs Ringer bicarbonate buffer (Sigma-Aldlich Co.) containing sodium hydrogencarbonate (final concentration: 15 mM) and calcium chloride (final concentration: 2.5 mM)) which had been saturated with a mixed gas (95% O2, 5% CO2).
The urinary bladder bodies were cut in the longitudinal direction to prepare strip specimens (about 10×3 mm) on ice. Immediately, the prepared specimens were suspended in a Magnus tube with 500 mg of tension loaded. The tube was filled with Krebs buffer (37° C.) aerated with a mixed gas. Note here that specimens were prepared within 24 hours after extraction of the tissue.
When one hour or more had passed after the specimen was suspended, 2.5M KCl was added so that the final concentration became 100 mM, specimens showing contraction reaction were used.
Carbachol (a contraction-inducing substance) at the concentration of contraction of 1 μM was used to induce contraction. […] After the contraction reaction was stabilized, a physiological salt solution or the compound of the present invention was added in a cumulative manner from low concentration such that the final concentration became 1, 10, 100 nM, 1 and 10 μM.
The tension (mg) of the extracted urinary bladder was employed as an evaluation parameter. The tension was read by using analysis software WAVE THERMO 1000. Tension after addition of the contraction-inducing substance was set to 0%. The change rate of the tension after addition of the compound of the present invention relative to the tension after addition of the contraction-inducing substance was defined as tension change rate (%). The tension change rate (%) was adopted as an evaluation indicator. The tension change rate (%) is calculated from the following formula. Tension change rate (%)={Tension after addition of compound of the present invention and the like (mg)−Tension before addition of contraction-inducing substance (mg)}/{Tension after addition of contraction-inducing substance (mg)−Tension before addition of contraction-inducing substance (mg)}×100−100
The value at which the tension change rate (%) was −20% was calculated as IC20, and the value was adopted as an indicator of the relaxing action of the extracted urinary bladder.

Data set [5] addresses Human KCNQ2/3 channel (Homo sapiens (Human), UniProt O43525+O43526). Description: Opening action with respect to KCNQ2/3 channel by depolarization stimulation (thallium influx, FLIPR). The data set is classed as cell-based. Particulars: concentration giving 50% of maximum reaction of retigabine (10 μM); human KCNQ2/3 expression CHO-DHFR- cells; 5 mM potassium and 0.5 mM thallium; read-out: KCNQ2/3 ECrtg50. As for the experimental part: Human KCNQ2/3 expression cells (CHO-DHFR-cells) were seeded in each well of 384 well plate (collagen-coated, black, clear bottom) at 0.5×10^4 cells/50 μL per well, and cultured in a MEM ALPHA medium (containing 10 vol % inactivated (56° C., 30 min) Fetal Bovine Serum and 100 IU/mL Penicillin—100 μg/mL Streptomycin—2 mM L-Glutamine) at 37° C. in 5% CO2 for 18 to 24 hours. The medium in the plate was removed. Then, incubation (room temperature, 60 minutes, light-shielded) was carried out in a loading buffer (prepared by the method described in the manual of FluxOR Thallium Detection Kit (Invitrogen, F10016, F10017)). KCNQ2/3 channel opening action (thallium influx into cells) by the depolarization stimulation (5 mM potassium and 0.5 mM thallium) was measured by FLIPR TETRA (Molecular Devices). The compound of the present invention had been treated five minutes before the depolarization stimulation, and the reaction induced by the depolarization stimulation was measured over time for 180 seconds. The channel opening action of the compound of the present invention was evaluated based on the change amount of the fluorescence intensity from the time before the depolarization stimulation to the time after the passage of 180 seconds. Thus, the concentration (ECrtg50) satisfying 50% of the fluorescence intensity change of maximum reaction (at the time of 10 μM-treatment) of retigabine under this experiment condition was calculated.

Values after ≈ are worked out from the molar mass of the structure shown.

In turn, `C[C@@](O)(c1cc(Cl)c(NC(=O)NCc2ccc(C(F)(F)F)cn2)c(Cl)c1)C(F)(F)F` [Example 22 (1), 1-{2,6-dichloro-4-[(2R)-1,1,1-trifluoro-2-hydroxy-2-propanyl]phenyl}-3-{[5-(trifluoromethyl)-2-pyridinyl]methyl}urea] came in with a Residual rate in data set [1] of 100%. The amount in solution in data set [2] (solubility at 5 h) came to 77 µM (≈ 36.7 µg/mL). The IC50 in data set [3] is greater than 10000 nM. This compound came in with an IC20 in data set [4] of 300 nM. Besides, in data set [5], the EC50 was found to be 60 nM.

Turning to `C[C@@](O)(c1cc(Cl)c(NC(=O)NCc2ncc(C(F)(F)F)cn2)c(Cl)c1)C(F)(F)F` [Example 22 (2), 1-{2,6-dichloro-4-[(2R)-1,1,1-trifluoro-2-hydroxy-2-propanyl]phenyl}-3-{[5-(trifluoromethyl)-2-pyrimidinyl]methyl}urea], in data set [1], the Residual rate is reported as 100%. In data set [2], this compound showed a solubility at 5 h of 89 µM (≈ 42.5 µg/mL). The IC50 in data set [3] was greater than 10000 nM. In data set [4], this compound displayed an IC20 of 400 nM. In data set [5], the EC50 was 500 nM.

On to `C[C@@](O)(c1cc(Cl)c(NC(=O)NCc2ccc(C(F)(F)F)nc2)c(Cl)c1)C(F)(F)F` [Example 22 (3), 1-{2,6-dichloro-4-[(2R)-1,1,1-trifluoro-2-hydroxy-2-propanyl]phenyl}-3-{[6-(trifluoromethyl)-3-pyridinyl]methyl}urea], for which, in data set [1], the Residual rate came out at 98%. The same compound had a solubility at 5 h in data set [2] of 81 µM (≈ 38.6 µg/mL). Besides, the IC50 in data set [3] is greater than 10000 nM. Besides, in data set [4], the IC20 amounted to 300 nM. Further, the EC50 in data set [5] was determined as 200 nM.

On to `C[C@](O)(c1cc(Cl)c(NC(=O)NCc2ncc(C(F)(F)F)cn2)c(Cl)c1)C(F)(F)F` [Example 25 (1), 1-{2,6-dichloro-4-[(2S)-1,1,1-trifluoro-2-hydroxy-2-propanyl]phenyl}-3-{[5-(trifluoromethyl)-2-pyrimidinyl]methyl}urea], for which the Residual rate in data set [1] came to 78%. The solubility at 5 h in data set [2] was found to be 96 µM (≈ 45.8 µg/mL). In addition, the IC50 in data set [3] was greater than 10000 nM. In addition, in data set [4], the IC20 was determined as 600 nM. Further, the EC50 in data set [5] came to 1400 nM.

Consider `C[C@](O)(c1cc(Cl)c(NC(=O)NCc2ccc(C(F)(F)F)nc2)c(Cl)c1)C(F)(F)F` [Example 25 (2), 1-{2,6-dichloro-4-[(2S)-1,1,1-trifluoro-2-hydroxy-2-propanyl]phenyl}-3-{[6-(trifluoromethyl)-3-pyridinyl]methyl}urea], for which the Residual rate in data set [1] came out at 80%. Moreover, in data set [2], the solubility at 5 h was found to be 86 µM (≈ 41 µg/mL). Also, in data set [3], the IC50 was greater than 10000 nM. Further, the concentration for an effect of 20% (IC20) in data set [4] amounted to 200 nM. In data set [5], the EC50 was 300 nM.

`C[C@](O)(c1cc(Cl)c(NC(=O)NCc2ccc(Cl)cn2)c(Cl)c1)C(F)(F)F` [Example 25 (5), 1-[(5-chloro-2-pyridinyl)methyl]-3-{2,6-dichloro-4-[(2S)-1,1,1-trifluoro-2-hydroxy-2-propanyl]phenyl}urea] yielded a Residual rate in data set [1] of 87%. Besides, the concentration in solution in data set [2] (solubility at 5 h) was 98 µM (≈ 43.4 µg/mL). Further, the IC50 in data set [3] was greater than 10000 nM. Also, in data set [4], the 20% effect level (IC20) was put at 500 nM.

In turn, `O=C(NCc1cnc(C(F)(F)F)nc1)Nc1c(Cl)cc([C@@H](O)C(F)(F)F)cc1Cl` [Example 32 (3), 1-{2,6-dichloro-4-[(1R)-2,2,2-trifluoro-1-hydroxyethyl]phenyl}-3-{[2-(trifluoromethyl)-5-pyrimidinyl]methyl}urea] returned a Residual rate in data set [1] of 100%. For the same compound, the solubility at 5 h in data set [2] came to 100 µM (≈ 46.3 µg/mL). Also, in data set [3], the half-inhibitory concentration (IC50) was greater than 10000 nM. The IC20 in data set [4] is 100 nM. Also, the EC50 in data set [5] is 500 nM.

Turning to `O=C(NCc1ncc(C(F)(F)F)cn1)Nc1c(Cl)cc([C@@H](O)C(F)(F)F)cc1Cl` [Example 32 (4), 1-{2,6-dichloro-4-[(1R)-2,2,2-trifluoro-1-hydroxyethyl]phenyl}-3-{[5-(trifluoromethyl)-2-pyrimidinyl]methyl}urea], in data set [1], the Residual rate was 100%. Moreover, in data set [2], the solubility at 5 h was 77 µM (≈ 35.7 µg/mL). Besides, the IC50 in data set [3] was greater than 10000 nM. In data set [4], this compound came in with an IC20 of 200 nM. For the same compound, in data set [5], the EC50 came out at 200 nM.

For the compound `O=C(NCc1cnc(C(F)(F)F)s1)Nc1c(Cl)cc([C@@H](O)C(F)(F)F)cc1Cl` [Example 33, 1-{2,6-dichloro-4-[(1R)-2,2,2-trifluoro-1-hydroxyethyl]phenyl}-3-{[2-(trifluoromethyl)-1,3-thiazole-5-yl]methyl}urea], the Residual rate in data set [1] is reported as 100%. The concentration in solution in data set [2] (solubility at 5 h) was 91 µM (≈ 42.6 µg/mL). Moreover, the IC50 in data set [3] is greater than 10000 nM. The IC20 in data set [4] turned out to be 30 nM. The EC50 in data set [5] worked out at 40 nM.

For `CC(O)(c1cc(Cl)c(NC(=O)Cc2ccc(F)cc2)c(Cl)c1)C(F)(F)F` (stereo not shown) [Example 50 (1), N-[2,6-dichloro-4-(1,1,1-trifluoro-2-hydroxy-2-propanyl)phenyl]-2-(4-fluorophenyl)acetamide], the Residual rate in data set [1] is given as 96%. Moreover, the solubility at 5 h in data set [2] came to 82 µM (≈ 33.6 µg/mL). The IC50 in data set [3] was greater than 10000 nM. Further, the EC50 in data set [5] came to 60 nM.

In data set [1], `NC(c1cc(Cl)c(NC(=O)NCc2ccc(C(F)(F)F)cn2)c(Cl)c1)C(F)(F)F` (stereo not shown) [Example 79 (1), 1-[4-(1-amino-2,2,2-trifluoroethyl)-2,6-dichlorophenyl]-3-{[5-(trifluoromethyl)-2-pyridinyl]methyl}urea] gave a Residual rate of 82%. This compound had a solubility at 5 h in data set [2] of 87 µM (≈ 40.1 µg/mL). The 50% inhibitory concentration (IC50) in data set [3] is greater than 10000 nM. For the same compound, the EC50 in data set [5] is 1600 nM.

By solubility is commonly meant how much of the substance goes into solution per volume. A higher solubility goes with a readily soluble substance. The IC50 is the concentration needed to halve the response being measured. A word on the IC20: it is the concentration at which the effect reaches the 20% level. High values mean weaker potency, low ones greater potency.
